Reference: ChEMBL document CHEMBL1126329, “Azasugar and glycal inhibitors of -L-fucosidase” (Bioorg Med Chem Lett, 1992)

biological target: T1, Tissue alpha-L-fucosidase (Homo sapiens) (UniProt P04066)
T1 sequence (whole entry): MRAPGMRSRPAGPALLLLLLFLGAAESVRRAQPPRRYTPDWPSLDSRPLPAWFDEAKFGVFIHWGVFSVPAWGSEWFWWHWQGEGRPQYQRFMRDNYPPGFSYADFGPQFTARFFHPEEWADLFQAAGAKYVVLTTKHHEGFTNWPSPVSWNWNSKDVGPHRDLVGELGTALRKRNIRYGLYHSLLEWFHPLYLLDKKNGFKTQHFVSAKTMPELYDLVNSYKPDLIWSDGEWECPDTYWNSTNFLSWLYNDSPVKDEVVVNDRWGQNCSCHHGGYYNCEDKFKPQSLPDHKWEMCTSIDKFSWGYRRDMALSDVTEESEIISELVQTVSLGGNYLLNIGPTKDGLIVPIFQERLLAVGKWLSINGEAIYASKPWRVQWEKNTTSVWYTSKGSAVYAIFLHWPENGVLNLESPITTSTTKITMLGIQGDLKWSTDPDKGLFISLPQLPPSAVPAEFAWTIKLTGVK
Description: Slope inhibition constant against Alpha-Fucosidase; Uncompetitive inhibition

| SMILES | Kis |
| --- | --- |
| Oc1ccccc1 | 0.18 mM |

biological target: T1, Tissue alpha-L-fucosidase (Homo sapiens); remark: another data set of the same source
Description: Intecept inhibition constant against Alpha-Fucosidase; Noncompetitive inhibition

| SMILES | Kii |
| --- | --- |
| Oc1ccccc1 | 112 mM |

biological target: T2, Tissue alpha-L-fucosidase (Homo sapiens, UniProt P04066); assay: Inhibition constant against Alpha-Fucosidase
T2 sequence (P04066 whole entry): T1 sequence (whole entry)

| SMILES | Ki |
| --- | --- |
| OC1C=COC(c2ccccc2)C1OCc1ccccc1 (configuration not stated) | > 100 mM |
| OC1C=COC(c2ccccc2)C1 (configuration not stated) | > 100 mM |
| OCC1NC(CO)C(O)C1O (configuration not stated) | 0.91 mM |
| C[C@@H]1N[C@@H](CO)[C@H](O)[C@@H]1O | 0.004 mM |
| CC1=COC(c2ccccc2)C(C)C1O (stereo in doubt; 21) | > 100 mM |
| C[C@@H]1OC=C[C@@H](O)[C@@H]1O | 0.05 mM |
| CC(=O)C1C(O)C=COC1C (configuration not stated) | 0.09 mM |
| CN1CC(O)C(O)C(O)C1CO (configuration not stated) | 5.3 mM |
| CC(=O)C1C(O)C=COC1c1ccccc1 (configuration not stated) | > 100 mM |
| CC1=COC(c2ccccc2)C(C)C1O (stereo in doubt; 26) | > 100 mM |

biological target: T2, Tissue alpha-L-fucosidase; assay: Inhibition constant against Alpha-Fucosidase; Uncompetitive inhibition

| SMILES | Ki |
| --- | --- |
| C[C@H]1OC=C[C@@H](O)[C@H]1O (stereo in doubt; 19) | 35 mM |
| OC1C=COC(c2ccccc2)C1O (stereo in doubt; 25) | 22 mM |
| OC1C=COC(c2ccccc2)C1O (stereo in doubt; 23) | 83 mM |
| CC(=O)C1C(O)C=COC1C (configuration not stated) | 26 mM |
| C[C@H]1OC=C[C@@H](O)[C@H]1O (stereo in doubt; 24) | 23 mM |
